Source: PubChem BioAssay (NCI)
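Briefly, cells in 96-well plates were exposed to five compound concentrations for 48 h, and endpoints were estimated by linear interpolation. TGI denotes the concentration required for complete inhibition of growth.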

Tests used:
Test in all cases: NCI-60 cell line screen, 48 h
[1] = test system: M19-MEL melanoma
[2] = test system: DLD-1 colon
[3] = test system: DMS 114 small cell lung
[4] = test system: XF 498 CNS
[5] = test system: SNB-78 CNS

Measured: TGI

N/N=C(\C(=O)Nc1c(Cl)cc([N+](=O)[O-])cc1Cl)C(c1cnc2ccc([N+](=O)[O-])cc2n1)[N+](=O)[O-] (stereo not given)
> 100 µM: [1] | [2] | [3] | [4] | [5]
